US20250064941A1, “SIGLEC LIGANDS, CONJUGATES, AND METHODS OF USE THEREOF” (Osprey Biopharmaceuticals, Inc., priority 2023, published 2025)

Tests used:
[1] = molecular target: T1, human Siglec-2/CD22 protein (Homo sapiens, UniProt P20273); experiment: SPR binding affinity to human CD22; conditions: steady-state analysis
T1 construct: purchased Acro Biosystems SI2-H82E3
T1 sequence (P20273 20-847): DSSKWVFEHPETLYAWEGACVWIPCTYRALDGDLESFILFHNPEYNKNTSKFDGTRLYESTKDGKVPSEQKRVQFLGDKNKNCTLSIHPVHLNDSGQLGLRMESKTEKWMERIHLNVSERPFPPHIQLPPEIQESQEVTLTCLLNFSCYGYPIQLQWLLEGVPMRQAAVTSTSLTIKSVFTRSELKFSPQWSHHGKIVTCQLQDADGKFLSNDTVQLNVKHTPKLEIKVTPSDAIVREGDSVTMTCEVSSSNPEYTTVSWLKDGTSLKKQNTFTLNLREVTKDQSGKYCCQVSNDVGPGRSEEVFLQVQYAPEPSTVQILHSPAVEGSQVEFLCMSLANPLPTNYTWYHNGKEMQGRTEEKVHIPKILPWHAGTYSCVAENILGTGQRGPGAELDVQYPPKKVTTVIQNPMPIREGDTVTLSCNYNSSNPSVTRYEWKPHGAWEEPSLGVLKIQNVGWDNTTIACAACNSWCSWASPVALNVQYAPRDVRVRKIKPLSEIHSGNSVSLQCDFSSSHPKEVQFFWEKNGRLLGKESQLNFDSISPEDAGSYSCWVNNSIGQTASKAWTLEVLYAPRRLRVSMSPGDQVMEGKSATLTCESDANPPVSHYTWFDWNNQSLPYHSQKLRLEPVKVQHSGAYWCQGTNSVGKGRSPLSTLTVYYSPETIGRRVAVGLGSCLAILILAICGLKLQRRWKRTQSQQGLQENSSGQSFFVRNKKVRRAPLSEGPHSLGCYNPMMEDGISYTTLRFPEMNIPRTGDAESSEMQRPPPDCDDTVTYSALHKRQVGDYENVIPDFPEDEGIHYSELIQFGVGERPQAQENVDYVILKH
Description: (§1) Prior to immobilization, CD22 proteins were treated with SialoExo (Genovis, Cat #G1-SM1-020) for 4 hours at 37° C. to remove native sialic acid residues.
(§2) Capture of biotinylated CD22 constructs was performed using a Cytiva SA chip (BR100398) on a Biacore 8K instrument.
(§3) Binding experiments of Siglec-ligand conjugated proteins or Siglec ligand compounds were performed on the surfaces prepared above in 10 mM HEPES, 150 mM NaCl, 0.05% Tween-20, pH 7.5, 1% DMSO as the running buffer. […] The compounds were then allowed to dissociate from the surface for 120 seconds. […] Solvent correction was performed using 0.5, 1, 1.5, and 2% DMSO spike into running buffer without DMSO. […] Data was analyzed using steady-state analysis in Biacore Insight Evaluation Software, version 3.0 for Siglec ligand compounds.

[2] = molecular target: T2, mouse Siglec-2-Fc-Avi (CD22) (Mus musculus, UniProt P35329); experiment: SPR binding affinity to mouse CD22; conditions: steady-state analysis
T2 construct: made in house
T2 sequence (P35329 22-708 limits assumed): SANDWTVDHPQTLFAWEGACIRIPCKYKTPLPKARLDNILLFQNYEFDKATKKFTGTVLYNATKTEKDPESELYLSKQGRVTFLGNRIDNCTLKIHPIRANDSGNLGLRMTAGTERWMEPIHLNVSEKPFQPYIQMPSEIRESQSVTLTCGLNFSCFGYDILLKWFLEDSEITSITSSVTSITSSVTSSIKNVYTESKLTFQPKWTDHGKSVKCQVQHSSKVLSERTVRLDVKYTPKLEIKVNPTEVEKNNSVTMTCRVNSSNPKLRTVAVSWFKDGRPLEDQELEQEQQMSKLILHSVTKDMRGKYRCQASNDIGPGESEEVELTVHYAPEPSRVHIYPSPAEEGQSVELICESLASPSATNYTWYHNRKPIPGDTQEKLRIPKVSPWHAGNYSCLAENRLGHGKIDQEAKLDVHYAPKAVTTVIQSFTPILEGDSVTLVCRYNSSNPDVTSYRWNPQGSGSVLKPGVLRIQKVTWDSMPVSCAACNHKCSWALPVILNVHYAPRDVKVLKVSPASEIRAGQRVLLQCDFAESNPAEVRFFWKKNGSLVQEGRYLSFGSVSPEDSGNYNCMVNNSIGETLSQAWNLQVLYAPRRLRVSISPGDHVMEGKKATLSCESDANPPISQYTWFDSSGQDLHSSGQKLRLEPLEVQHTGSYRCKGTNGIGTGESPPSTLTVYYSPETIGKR
Description: as §1, §2, §3

Kd [1]	Kd [2]	Structure (SMILES)
< 1000 nM	> 10000 nM	C#CCOCCOP(=O)(O)OCCCCCCO[C@]1(C(=O)O)C[C@H](O)[C@@H](NC(=O)CO)[C@H]([C@H](O)[C@H](O)CNC(=O)Cc2ccc(C(F)F)cc2)O1 [Compound 215, (2R,4S,5R,6R)-6-((1R,2R)-3-(2-(4-(difluoromethyl)phenyl)acetamido)-1,2-dihydroxypropyl)-4-hydroxy-2-((6-((hydroxy(2-(prop-2-yn-1-yloxy)ethoxy)phosphoryl)oxy)hexyl)oxy)-5-(2-hydroxyacetamido)tetrahydro-2H-pyran-2-carboxylic acid]
1000 to 10000 nM	1000 to 10000 nM	C#CCOCCOCCNc1c(NCCCCCCO[C@]2(C(=O)O)C[C@H](O)[C@@H](NC(=O)CO)[C@H]([C@H](O)[C@H](O)CNC(=O)c3ccccc3)O2)c(=O)c1=O [Compound 230, (2R,4S,5R,6R)-6-((1R,2R)-3-benzamido-1,2-dihydroxypropyl)-2-((6-((3,4-dioxo-2-((2-(2-(prop-2-yn-1-yloxy)ethoxy)ethyl)amino)cyclobut-1-en-1-yl)amino)hexyl)oxy)-4-hydroxy-5-(2-hydroxyacetamido)tetrahydro-2H-pyran-2-carboxylic acid]
< 1000 nM	< 1000 nM	C#CCOC(=O)NCc1ccc(CO[C@]2(C(=O)O)C[C@H](O)[C@@H](NC(=O)CO)[C@H]([C@H](O)[C@H](O)CNC(=O)Cc3ccc(Cl)cc3)O2)cc1 [Compound 117, (2R,4S,5R,6R)-6-((1R,2R)-3-(2-(4-chlorophenyl)acetamido)-1,2-dihydroxypropyl)-4-hydroxy-5-(2-hydroxyacetamido)-2-((4-((((prop-2-yn-1-yloxy)carbonyl)amino)methyl)benzyl)oxy)tetrahydro-2H-pyran-2-carboxylic acid]
< 1000 nM	1000 to 10000 nM	CC(=O)NCCOCCOCCOCCOCc1cn(CCCCCCO[C@]2(C(=O)O)C[C@H](O)[C@@H](NC(C)=O)[C@H]([C@H](O)[C@H](O)CNC(=O)Cc3ccc(Cl)cc3)O2)nn1 [Compound 250, (2R,4S,5R,6R)-5-acetamido-6-((1R,2R)-3-(2-(4-chlorophenyl)acetamido)-1,2-dihydroxypropyl)-4-hydroxy-2-((6-(4-(15-oxo-2,5,8,11-tetraoxa-14-azahexadecyl)-1H-1,2,3-triazol-1-yl)hexyl)oxy) tetrahydro-2H-pyran-2-carboxylic acid]
1000 to 10000 nM	> 10000 nM	CC(=O)NCCOCCOCCOCCOCCOC(=O)NCCCCCCO[C@]1(C(=O)O)C[C@H](O)[C@@H](NC(C)=O)[C@H]([C@H](O)[C@H](O)CNC(=O)c2cccc(Cl)c2)O1 [Compound 268, (2R,4S,5R,6R)-5-acetamido-6-((1R,2R)-3-(3-chlorobenzamido)-1,2-dihydroxypropyl)-2-((2,19-dioxo-6,9,12,15,18-pentaoxa-3,20-diazahexacosan-26-yl)oxy)-4-hydroxytetrahydro-2H-pyran-2-carboxylic acid]
< 1000 nM	> 10000 nM	C#CCOCCCCCCO[C@]1(C(=O)O)C[C@H](O)[C@@H](Nc2c(NC)c(=O)c2=O)[C@H]([C@H](O)[C@H](O)CNC(=O)Cc2ccc(Cl)cc2)O1 [Compound 191, (2R,4S,5R,6R)-6-((1R,2R)-3-(2-(4-chlorophenyl)acetamido)-1,2-dihydroxypropyl)-4-hydroxy-5-((2-(methylamino)-3,4-dioxocyclobut-1-en-1-yl)amino)-2-((6-(prop-2-yn-1-yloxy)hexyl)oxy)tetrahydro-2H-pyran-2-carboxylic acid]
< 1000 nM	1000 to 10000 nM	C#CCOCCOCCNc1c(NCCCCCCO[C@]2(C(=O)O)C[C@H](O)[C@@H](NC(=O)CO)[C@H]([C@H](O)[C@H](O)CNC(=O)c3ccc(Cl)cc3)O2)c(=O)c1=O [Compound 254, (2R,4S,5R,6R)-6-((1R,2R)-3-(4-chlorobenzamido)-1,2-dihydroxypropyl)-2-((6-((3,4-dioxo-2-((2-(2-(prop-2-yn-1-yloxy)ethoxy)ethyl)amino)cyclobut-1-en-1-yl)amino)hexyl)oxy)-4-hydroxy-5-(2-hydroxyacetamido) tetrahydro-2H-pyran-2-carboxylic acid]
1000 to 10000 nM	1000 to 10000 nM	C#CCOCCCCCCO[C@]1(C(=O)O)C[C@H](O)[C@@H](NC(=O)CO)[C@H]([C@H](O)[C@H](O)CNC(=O)Cc2ccc(N3CCC(O)CC3)cc2)O1 [Compound 194, (2R,4S,5R,6R)-6-((1R,2R)-1,2-dihydroxy-3-(2-(4-(4-hydroxypiperidin-1-yl)phenyl)acetamido)propyl)-4-hydroxy-5-(2-hydroxyacetamido)-2-((6-(prop-2-yn-1-yloxy)hexyl)oxy)tetrahydro-2H-pyran-2-carboxylic acid]
< 1000 nM	1000 to 10000 nM	CC(=O)NCCOCCOCCOCCOCCn1cc(COCCCCCCO[C@]2(C(=O)O)C[C@H](O)[C@@H](NC(=O)CO)[C@H]([C@H](O)[C@H](O)CNC(=O)Cc3ccc(Cl)cc3)O2)nn1 [Compound 262, (2R,4S,5R,6R)-6-((1R,2R)-3-(2-(4-chlorophenyl)acetamido)-1,2-dihydroxypropyl)-4-hydroxy-5-(2-hydroxyacetamido)-2-((6-((1-(2-oxo-6,9,12,15-tetraoxa-3-azaheptadecan-17-yl)-1H-1,2,3-triazol-4-yl)methoxy)hexyl)oxy)tetrahydro-2H-pyran-2-carboxylic acid]
< 1000 nM	1000 to 10000 nM	CC(=O)NCCOCCOCCOCCOCCNc1c(NCCCCCCO[C@]2(C(=O)O)C[C@H](O)[C@@H](NC(C)=O)[C@H]([C@H](O)[C@H](O)CNC(=O)Cc3ccc(Cl)cc3)O2)c(=O)c1=O [Compound 248, (2R,4S,5R,6R)-5-acetamido-6-((1R,2R)-3-(2-(4-chlorophenyl)acetamido)-1,2-dihydroxypropyl)-2-((6-((3,4-dioxo-2-((2-oxo-6,9,12,15-tetraoxa-3-azaheptadecan-17-yl)amino)cyclobut-1-en-1-yl)amino)hexyl)oxy)-4-hydroxytetrahydro-2H-pyran-2-carboxylic acid]
< 1000 nM	1000 to 10000 nM	C#CCOP(=O)(O)OCCCCCO[C@]1(C(=O)O)C[C@H](O)[C@@H](NC(=O)CO)[C@H]([C@H](O)[C@H](O)CNC(=O)Cc2ccc(Cl)cc2)O1 [Compound 95, (2R,4S,5R,6R)-6-((1R,2R)-3-(2-(4-chlorophenyl)acetamido)-1,2-dihydroxypropyl)-4-hydroxy-2-((5-((hydroxy(prop-2-yn-1-yloxy)phosphoryl)oxy)pentyl)oxy)-5-(2-hydroxyacetamido)tetrahydro-2H-pyran-2-carboxylic acid]
< 1000 nM	1000 to 10000 nM	C#CCOCCOCCNc1c(NCCCCCCO[C@]2(C(=O)O)C[C@H](O)[C@@H](NC(=O)CO)[C@H]([C@H](O)[C@H](O)CNC(=O)c3cccc(Oc4ccccc4)c3)O2)c(=O)c1=O [Compound 39, (2R,4S,5R,6R)-6-((1R,2R)-1,2-dihydroxy-3-(3-phenoxybenzamido)propyl)-2-((6-((3,4-dioxo-2-((2-(2-(prop-2-yn-1-yloxy)ethoxy)ethyl)amino)cyclobut-1-en-1-yl)amino)hexyl)oxy) -4-hydroxy-5-(2-hydroxyacetamido) tetrahydro-2H-pyran-2-carboxylic acid]
